Assay results reported in patent publication US11464780B2, “Pyrazolopyrimidine derivative and use thereof” (Simcere Pharmaceutical Co. Ltd., priority 2018, dated 2022).
Like-named read-outs stand apart in the source and are kept apart here.

Columns and labels:
Ros1 = biological target: T1, Ros1 (Homo sapiens, UniProt P08922); experiment: Kinase inhibitory activity (33P-ATP filter binding, Reaction Biology Corp.); assay type: biochemical; settings: read-out: The half maximal inhibitory concentration IC50 on the kinases, Ros1
T1 construct: purchased Reaction Biology Corp. (contract assay)
Method: (§1) The mixture was incubated at room temperature for 20 minutes. To the reaction mixture was added a certain concentration of ^33P-ATP to initiate the reaction, and then the mixture was incubated at room temperature for 120 minutes. The radioactivities of the reactants were determined by the method of filter binding. The final kinase activity was expressed as the ratio of the remaining kinase activity in the test sample to the kinase activity in the DMSO control group. The dose-effect curve was fitted by GraphPad software and the IC50 was calculated.

TrkA = biological target: T2, TrkA (Homo sapiens, UniProt P04629); experiment: as above; assay type: biochemical; settings: read-out: The half maximal inhibitory concentration IC50 on the kinases, TrkA
T2 construct: purchased Reaction Biology Corp. (contract assay)
Method: as §1

TrkA-G595R = biological target: T3, TrkA-G595R (Homo sapiens, UniProt P04629, G595R); experiment: as above; assay type: biochemical; settings: read-out: The half maximal inhibitory concentration IC50 on the kinases, TrkA-G595R
T3 construct: purchased Reaction Biology Corp. (contract assay)
Method: as §1

TrkA-G667C = biological target: T4, TrkA-G667C (Homo sapiens, UniProt P04629, G667C); experiment: as above; assay type: biochemical; settings: read-out: The half maximal inhibitory concentration IC50 on the kinases, TrkA-G667C
T4 construct: purchased Reaction Biology Corp. (contract assay)
Method: as §1

TrkC = biological target: T5, TrkC (Homo sapiens, UniProt Q16288); experiment: as above; assay type: biochemical; settings: read-out: The half maximal inhibitory concentration IC50 on the kinases, TrkC
T5 construct: purchased Reaction Biology Corp. (contract assay)
Method: as §1

ALK = biological target: T6, ALK (Homo sapiens, UniProt Q9UM73); experiment: as above; assay type: biochemical; settings: read-out: The half maximal inhibitory concentration IC50 on the kinases, ALK
T6 construct: purchased Reaction Biology Corp. (contract assay)
Method: The inhibitory activities of the compounds on TrkA, TrkC, ALK, Ros1 and other kinases were determined by Reaction Biology Corp. To reaction buffer (20 mM Hepes (pH 7.5), 10 mM MgCl2, 1 mM EGTA, 0.02% Brij35, 0.02 mg/mL BSA, 0.1 mM Na3VO4, 2 mM DTT, 1% DMSO) were sequentially added a certain concentration of substrate, coenzyme factor, kinase and test compound (10 concentrations, 3-fold serial dilutions, DMSO at a final concentration of […]), and the mixture was mixed evenly. The mixture was incubated at room temperature for 20 minutes. To the reaction mixture was added a certain concentration of ^33P-ATP to initiate the reaction, and then the mixture was incubated at room temperature for 120 minutes. The radioactivities of the reactants were determined by the method of filter binding. The final kinase activity was expressed as the ratio of the remaining kinase activity in the test sample to the kinase activity in the DMSO control group. The dose-effect curve was fitted by GraphPad software and the IC50 was calculated.

[1] = biological target: T7, Ba/F3 LMNA-NTRK1-WT stably transfected cell line (Homo sapiens, UniProt P04629); experiment: Cell proliferation inhibition (CellTiter-Glo); assay type: cell-based; settings: 72 hours, read-out: The half maximal inhibitory concentration IC50 against cells, Ba/F3 LMNA-NTRK1-WT
T7 construct: fused on or other part: P02545 (Prelamin-A/C)
Method: Adenosine Tri-Phosphate (ATP) is an energy carrier shared by various life activities in nature, and is the smallest unit of energy storage and transfer. The CellTiter-Glo™ cell viability detection kit uses luciferase as the detection substance, and luciferase requires the participation of ATP during the process of luminescence. CellTiter-Glo™ reagent is added to cell culture medium, and the luminescent intensity is measured. The luminescent signal is directly proportional to the amount of ATP in the system, and ATP is positively related to the number of living cells. Therefore, by using the CellTiter-Glo kit to detect ATP content, cell proliferation can be detected. In this assay, the cell line is Ba/F3 LMNA-NTRK1-WT stably transfected cell line, with 5000 cells/well.
IC50 Determination Process:
1. Cell Culture and Inoculation
a) the cells in the logarithmic growth phase were harvested, and counted with a platelet counter. Trypan blue exclusion method was used to detect cell viability to ensure the cell viability was no less than 90%.
b) the cell concentration was adjusted; 90 μL of cell suspension was added respectively into a 96-well plate.
c) the cells in the 96-well plates was cultured under conditions of 37° C., 5% CO2 and 95% humidity overnight.
2. Drug Dilution and Administration
a) 10-fold drug solutions were prepared, the highest concentration was 10 μM, 9 concentrations, 3-fold diluted (refer to Appendix I). 10 μL of each drug solution was added to each well of the 96-well plate seeded with the cells in triplicate.
b) the cells in the 96-well plate added with the drug were cultured under conditions of 37° C., 5% CO2 and 95% humidity for 72 hours, and then CTG (cell proliferation) was performed.
a) CellTiter-Glo™ reagent was thawed, and the cell plate was equilibrated at room temperature for 30 minutes.
b) CellTiter-Glo™ reagent of a same volume was added to each well;
c) the cell plate was shaken on an orbital shaker for 5 minutes to lyse the cells.
d) the cell plate was placed at room temperature for 20 minutes to stabilize the luminescent signal.
e) the luminescent intensity was read.
GraphPad Prism 5.0 software was used to analyze the data, nonlinear S-curve regression was used to fit the data to obtain dose-effect curve, and IC50 value was calculated therefrom.

[2] = biological target: T8, Ba/F3 LMNA-NTRK1-G595R stably transfected cell line (Homo sapiens, UniProt P04629, G595R, cells depend on it); experiment: Cell proliferation inhibition (CellTiter-Glo); assay type: cell-based; settings: 72 hours, read-out: The half maximal inhibitory concentration IC50 against cells, Ba/F3 LMNA-NTRK1-G595R
T8 construct: fused on or other part: P02545 (Prelamin-A/C)

[3] = biological target: T9, BaF3 ETV6-NTRK3-G623R stably transfected cell line (Homo sapiens, UniProt Q16288, G623R, cells depend on it); experiment: Cell proliferation inhibition (CellTiter-Glo); assay type: cell-based; settings: 72 hours, read-out: The half maximal inhibitory concentration IC50 against cells, BaF3 ETV6-NTRK3-G623R
T9 construct: fused on or other part: P41212 (Transcription factor ETV6)

[4] = In vivo pharmacokinetic test in mice; set-up: species or system male CD-1 mice; settings: for Cmax: read-out: Peak concentration Cmax; for Vd: read-out: Apparent volume of distribution Vd; for AUC(0-t): read-out: Area under the curve AUC0-last; for half-life: read-out: Half life T1/2 (converted); for bioavailability: read-out: Bioavailability F %; for Tmax: read-out: Time of peak concentration Tmax
Method: Experimental object: male CD-1 mice aged 7-9 weeks were used as the experimental animals, the LC/MS/MS method was used to determine the drug concentrations in plasma at different time points after single intravenous (IV) and intragastric (PO) administration of the compounds, in vivo pharmacokinetic behaviors of the compounds of the present disclosure in mice were studied, and pharmacokinetic characteristics thereof were evaluated. Drug preparation: The compounds were prepared into clear solutions with 5% DMSO+10% solutol+85% water as solvent for administration in IV (intravenous) group and PO (intragastric). The dose of the compounds: IV dose of 3 mg/kg, and PO dose of […].

[5] = In vivo cassette pharmacokinetic test in mice; set-up: species or system male CD-1 mice; settings: cassette, mice; for Apparent clearance Cl: IV @ 1 mpk
Method: The dose of the compounds: […] PO dose of 3 mg/kg, and administration volume of 3 mL/kg.

[6] = system: human colon cancer cell line KM12 subcutaneous xenograft tumor; experiment: In vivo efficacy, subcutaneous xenograft tumor of human colon cancer KM12; set-up: species or system BALB/c mouse; settings: PO
Method: Experimental object: evaluation of the in vivo efficacy of test drugs such as WX002A on subcutaneous xenograft tumor of human colon cancer cell line KM12 cell in BALB/c mouse model.
Drug preparation: The compounds were all prepared into clear solutions with 5% DMSO+10% solutol+85% water as solvent for administration in the PO (intragastric) group.
Tumor measurement: the tumor diameters were measured with a vernier caliper twice a week. The calculation formula of tumor volume is: V=0.5×a×b^2, wherein a and b represent the long diameter and short diameter of the tumor, respectively. The anti-tumor efficacy of the compounds is evaluated by TGI (%). TGI (%) reflects tumor growth inhibition rate.
Statistical analysis: The statistical analysis was based on the relative tumor volume and tumor weight at the end of the experiment using SPSS software. One-way ANOVA was used to analyze the comparison between multiple groups. […] P<0.05 was considered to indicate significant difference.

[7] = male, CD-1, mouse, plasma, IV dose of 3 mg/kg
[8] = male, CD-1, mouse, plasma, PO dose of 10 mL/kg vs IV 3 mg/kg
[9] = male, CD-1, mouse, plasma, PO dose of 10 mL/kg

T4 sequence (P04629 33-796 G667C): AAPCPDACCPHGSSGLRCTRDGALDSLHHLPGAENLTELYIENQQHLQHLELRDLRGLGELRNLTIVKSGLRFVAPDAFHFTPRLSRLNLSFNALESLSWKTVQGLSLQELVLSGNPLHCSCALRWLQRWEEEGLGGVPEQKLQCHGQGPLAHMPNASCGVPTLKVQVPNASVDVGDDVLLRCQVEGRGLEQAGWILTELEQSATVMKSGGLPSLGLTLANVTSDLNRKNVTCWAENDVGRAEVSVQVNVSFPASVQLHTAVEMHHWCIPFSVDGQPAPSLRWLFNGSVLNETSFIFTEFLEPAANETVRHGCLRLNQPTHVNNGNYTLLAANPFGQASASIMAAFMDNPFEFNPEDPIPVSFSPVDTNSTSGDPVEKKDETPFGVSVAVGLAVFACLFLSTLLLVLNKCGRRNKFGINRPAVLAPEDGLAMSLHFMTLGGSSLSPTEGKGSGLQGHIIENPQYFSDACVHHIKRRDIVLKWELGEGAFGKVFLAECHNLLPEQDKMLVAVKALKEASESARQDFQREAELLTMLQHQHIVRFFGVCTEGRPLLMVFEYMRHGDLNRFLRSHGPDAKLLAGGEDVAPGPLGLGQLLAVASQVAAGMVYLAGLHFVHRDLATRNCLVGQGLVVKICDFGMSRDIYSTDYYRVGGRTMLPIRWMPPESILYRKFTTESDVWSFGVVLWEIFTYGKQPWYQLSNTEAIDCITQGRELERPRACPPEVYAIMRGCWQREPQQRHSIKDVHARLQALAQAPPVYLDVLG
T1 sequence (P08922 28-2347): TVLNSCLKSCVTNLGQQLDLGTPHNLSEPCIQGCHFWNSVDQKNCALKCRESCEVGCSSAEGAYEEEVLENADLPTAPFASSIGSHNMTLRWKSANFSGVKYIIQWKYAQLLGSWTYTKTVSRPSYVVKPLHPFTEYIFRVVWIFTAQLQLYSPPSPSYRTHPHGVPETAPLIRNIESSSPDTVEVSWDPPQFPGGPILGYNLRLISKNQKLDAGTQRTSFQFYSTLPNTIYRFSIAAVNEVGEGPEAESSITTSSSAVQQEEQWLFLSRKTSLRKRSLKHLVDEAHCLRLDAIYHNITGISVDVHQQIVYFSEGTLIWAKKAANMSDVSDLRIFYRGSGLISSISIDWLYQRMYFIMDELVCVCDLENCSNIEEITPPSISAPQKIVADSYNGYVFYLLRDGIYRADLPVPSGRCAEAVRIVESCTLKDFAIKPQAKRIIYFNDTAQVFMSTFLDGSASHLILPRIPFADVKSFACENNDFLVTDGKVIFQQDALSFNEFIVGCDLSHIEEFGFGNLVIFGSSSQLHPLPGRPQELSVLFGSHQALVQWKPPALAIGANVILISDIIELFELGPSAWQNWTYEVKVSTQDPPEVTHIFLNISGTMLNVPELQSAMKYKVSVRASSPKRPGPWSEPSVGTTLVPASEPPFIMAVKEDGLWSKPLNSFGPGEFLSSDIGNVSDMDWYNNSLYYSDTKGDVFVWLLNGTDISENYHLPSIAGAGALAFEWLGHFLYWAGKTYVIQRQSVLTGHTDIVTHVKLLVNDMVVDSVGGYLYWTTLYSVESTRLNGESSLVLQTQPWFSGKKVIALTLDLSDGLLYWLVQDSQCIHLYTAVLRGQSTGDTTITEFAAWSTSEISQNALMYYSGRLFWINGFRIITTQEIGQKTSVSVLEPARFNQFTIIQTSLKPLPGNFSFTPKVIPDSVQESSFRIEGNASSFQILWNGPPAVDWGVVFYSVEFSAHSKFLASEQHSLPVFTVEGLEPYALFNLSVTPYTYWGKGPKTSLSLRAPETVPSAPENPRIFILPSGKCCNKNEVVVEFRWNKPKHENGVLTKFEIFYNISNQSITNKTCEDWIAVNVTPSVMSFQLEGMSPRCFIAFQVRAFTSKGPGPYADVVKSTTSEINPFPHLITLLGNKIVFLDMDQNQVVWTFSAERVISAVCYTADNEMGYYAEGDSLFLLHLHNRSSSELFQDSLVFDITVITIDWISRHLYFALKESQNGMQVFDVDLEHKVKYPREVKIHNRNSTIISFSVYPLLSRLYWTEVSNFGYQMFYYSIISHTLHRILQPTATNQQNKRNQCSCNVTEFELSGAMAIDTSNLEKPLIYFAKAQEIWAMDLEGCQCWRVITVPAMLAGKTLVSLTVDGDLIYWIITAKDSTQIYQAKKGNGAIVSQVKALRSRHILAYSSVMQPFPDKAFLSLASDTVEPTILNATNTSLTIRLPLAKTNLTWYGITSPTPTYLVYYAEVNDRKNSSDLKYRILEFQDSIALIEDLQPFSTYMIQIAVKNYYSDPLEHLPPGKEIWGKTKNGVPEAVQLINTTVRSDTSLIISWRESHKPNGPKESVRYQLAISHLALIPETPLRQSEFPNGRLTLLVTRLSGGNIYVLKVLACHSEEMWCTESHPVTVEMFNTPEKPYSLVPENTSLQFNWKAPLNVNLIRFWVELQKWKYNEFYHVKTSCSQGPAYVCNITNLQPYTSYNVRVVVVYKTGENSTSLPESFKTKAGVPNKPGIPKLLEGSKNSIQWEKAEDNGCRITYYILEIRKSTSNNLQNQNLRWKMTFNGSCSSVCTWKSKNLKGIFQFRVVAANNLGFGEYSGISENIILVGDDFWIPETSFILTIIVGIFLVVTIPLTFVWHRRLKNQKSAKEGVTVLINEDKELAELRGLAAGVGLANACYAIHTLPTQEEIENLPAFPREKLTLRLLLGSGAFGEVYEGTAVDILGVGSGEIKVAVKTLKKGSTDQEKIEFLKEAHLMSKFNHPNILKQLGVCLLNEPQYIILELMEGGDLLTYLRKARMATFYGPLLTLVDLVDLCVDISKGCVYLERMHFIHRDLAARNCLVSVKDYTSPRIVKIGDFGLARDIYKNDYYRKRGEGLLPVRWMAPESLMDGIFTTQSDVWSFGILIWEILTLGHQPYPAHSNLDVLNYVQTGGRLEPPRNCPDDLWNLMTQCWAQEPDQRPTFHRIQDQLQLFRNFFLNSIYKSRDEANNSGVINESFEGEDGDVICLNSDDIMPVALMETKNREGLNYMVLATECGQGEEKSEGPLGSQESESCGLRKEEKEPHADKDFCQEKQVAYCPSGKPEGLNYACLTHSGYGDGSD
T3 sequence (P04629 33-796 G595R): as the sequence (P04629 33-796 G667C) above, with G563R, C635G counted along it
T5 sequence (Q16288 32-839): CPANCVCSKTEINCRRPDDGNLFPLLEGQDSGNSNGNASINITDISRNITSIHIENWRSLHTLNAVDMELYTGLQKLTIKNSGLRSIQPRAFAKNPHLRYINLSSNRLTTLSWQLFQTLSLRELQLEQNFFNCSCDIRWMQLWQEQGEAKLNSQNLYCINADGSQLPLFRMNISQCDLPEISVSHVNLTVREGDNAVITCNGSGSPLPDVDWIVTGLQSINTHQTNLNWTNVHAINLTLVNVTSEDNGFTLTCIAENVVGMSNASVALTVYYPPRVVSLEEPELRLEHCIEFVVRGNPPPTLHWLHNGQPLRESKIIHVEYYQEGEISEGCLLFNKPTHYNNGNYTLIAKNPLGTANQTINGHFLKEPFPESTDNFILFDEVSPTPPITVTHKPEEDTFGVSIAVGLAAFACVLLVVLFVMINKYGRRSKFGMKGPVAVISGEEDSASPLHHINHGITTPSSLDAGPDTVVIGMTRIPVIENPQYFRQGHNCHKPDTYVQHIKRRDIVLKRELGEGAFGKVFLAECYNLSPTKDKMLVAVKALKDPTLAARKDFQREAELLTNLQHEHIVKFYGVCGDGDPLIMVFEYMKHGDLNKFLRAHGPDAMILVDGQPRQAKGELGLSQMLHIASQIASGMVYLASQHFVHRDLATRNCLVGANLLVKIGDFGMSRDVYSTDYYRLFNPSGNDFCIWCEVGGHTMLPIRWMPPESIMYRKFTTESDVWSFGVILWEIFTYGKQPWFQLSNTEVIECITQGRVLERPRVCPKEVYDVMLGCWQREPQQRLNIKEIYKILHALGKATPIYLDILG
T7 sequence (P04629 whole entry, stated change not applied, the tested form may be a part): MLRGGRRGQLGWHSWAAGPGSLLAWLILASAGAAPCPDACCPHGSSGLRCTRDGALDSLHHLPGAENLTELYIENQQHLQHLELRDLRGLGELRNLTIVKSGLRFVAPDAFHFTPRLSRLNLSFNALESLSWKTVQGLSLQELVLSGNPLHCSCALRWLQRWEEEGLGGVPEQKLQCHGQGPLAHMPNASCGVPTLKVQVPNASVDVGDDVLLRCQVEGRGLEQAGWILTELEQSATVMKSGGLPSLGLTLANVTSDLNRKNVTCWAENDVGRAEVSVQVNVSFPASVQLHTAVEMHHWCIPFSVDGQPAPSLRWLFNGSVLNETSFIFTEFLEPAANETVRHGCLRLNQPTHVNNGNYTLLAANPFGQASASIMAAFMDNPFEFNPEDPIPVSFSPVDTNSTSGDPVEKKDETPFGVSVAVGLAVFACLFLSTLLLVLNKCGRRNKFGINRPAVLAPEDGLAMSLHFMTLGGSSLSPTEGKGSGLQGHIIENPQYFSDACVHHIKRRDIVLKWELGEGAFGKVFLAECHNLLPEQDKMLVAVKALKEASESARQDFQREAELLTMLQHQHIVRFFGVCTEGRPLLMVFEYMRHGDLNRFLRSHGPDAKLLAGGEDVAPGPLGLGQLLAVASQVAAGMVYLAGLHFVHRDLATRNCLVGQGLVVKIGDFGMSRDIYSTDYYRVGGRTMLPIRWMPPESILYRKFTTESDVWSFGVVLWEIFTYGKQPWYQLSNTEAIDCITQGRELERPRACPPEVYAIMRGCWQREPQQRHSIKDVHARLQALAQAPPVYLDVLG
T8 sequence (P04629 whole entry G595R, the tested form may be a part): as the sequence (P04629 whole entry, stated change not applied, the tested form may be a part) above, with G595R counted along it
T2 sequence (P04629 33-796): as the sequence (P04629 33-796 G667C) above, with C635G counted along it

## O=C1NC2(CC2)COc2ccc(F)cc2[C@H]2CCON2c2ccn3ncc1c3n2 (single isomer, unassigned) [WX003A]
Ros1
  IC50: 0.15 nM
TrkA
  IC50: 2.66 nM
TrkA-G595R
  IC50: 3.59 nM
TrkA-G667C
  IC50: 3.04 nM
TrkC
  IC50: 0.06 nM
ALK
  IC50: 28.1 nM
[1]
  GI50: 4.08 nM
[2]
  GI50: 27.9 nM
[3]
  GI50: 0.9 nM
[4]; IV dose of 3 mg/kg
  Apparent clearance Cl: 10.8 mL/min/kg
  Apparent volume of distribution Vd: 0.81 L/kg
  Area under the curve AUC0-last: 12.216 µM·h
  Half life T1/2: 42 min
[4]; PO dose of 10 mL/kg
  Area under the curve AUC0-last: 27.967 µM·h
  Time of peak concentration Tmax: 22.8 min
  Cmax: 7.36 µM
[4]; PO dose of 10 mL/kg vs IV 3 mg/kg
  Bioavailability F %: 69%

## C[C@@H]1COc2ncc(F)cc2[C@H]2CCON2c2ccn3ncc(c3n2)C(=O)N1 [WX004A]
Ros1
  IC50: 0.94 nM
TrkA
  IC50: 14.3 nM
TrkA-G595R
  IC50: 38.5 nM
TrkA-G667C
  IC50: 42 nM
TrkC
  IC50: 0.41 nM
ALK
  IC50: 109 nM
[1]
  GI50: 7.69 nM
[2]
  GI50: 14.5 nM
[3]
  GI50: 2.1 nM
[4]; IV dose of 3 mg/kg
  Apparent clearance Cl: 10.4 mL/min/kg
[4]; [7]
  Vd: 0.75 L/kg
  AUC(0-t): 12.5 µM·h
  half-life: 44.4 min
[4]; [8]
  bioavailability: 72%
[4]; [9]
  AUC(0-t): 29.6 µM·h
  Cmax: 10.5 µM
  Tmax: 30 min

## C[C@@H]1COc2ccc(F)cc2[C@H]2CCON2c2ccn3ncc(c3n2)C(=O)N1 [WX017A]
Ros1
  IC50: 0.82 nM
TrkA
  IC50: 13.4 nM
TrkA-G595R
  IC50: 37.1 nM
TrkA-G667C
  IC50: 26.3 nM
TrkC
  IC50: 0.3 nM
ALK
  IC50: 119 nM
[4]; IV dose of 3 mg/kg
  Apparent clearance Cl: 17.8 mL/min/kg
[4]; [7]
  Vd: 0.74 L/kg
  AUC(0-t): 7.34 µM·h
  half-life: 42.6 min
[4]; [8]
  bioavailability: 111%
[4]; [9]
  AUC(0-t): 26.7 µM·h
  Cmax: 10.8 µM
  Tmax: 37.8 min

## C[C@H]1CNC(=O)c2cnn3ccc(nc23)N[C@H](C)c2cc(F)ccc2O1 [TPX-0005, reference compound]
[5]
  Apparent clearance Cl: 16.5 mL/min/kg
[5]; PO @ 3 mpk, CSF
  drug concentration in cerebrospinal fluid at 0.5 hour CSF@0.5 h: 8 nmol/kg
[5]; PO @ 3 mpk
  drug concentration in brain at 0.5 h Brain@0.5 h: 50 nmol/kg
[5]; PO @ 3 mpk, 2 h
  drug concentration in brain at 2 h Brain@2 h: 41 nmol/kg
[6]; dose of 3 mg/kg
  T/C: 16.80%
  TGI: 87.46%

## O=C(Nc1cnn2ccc(N3CCC[C@@H]3c3cc(F)ccc3F)nc12)N1CC[C@H](O)C1 [LOXO-101, Larotrectinib, reference compound]
[5]
  Apparent clearance Cl: 22.7 mL/min/kg
[5]; PO @ 3 mpk, CSF
  drug concentration in cerebrospinal fluid at 0.5 hour CSF@0.5 h: 15 nmol/kg
[5]; PO @ 3 mpk, CSF, 2 h
  drug concentration in cerebrospinal fluid at 2 hour CSF@2 h: 3 nmol/kg
[5]; PO @ 3 mpk
  drug concentration in brain at 0.5 h Brain@0.5 h: 40 nmol/kg
[5]; PO @ 3 mpk, 2 h
  drug concentration in brain at 2 h Brain@2 h: 20 nmol/kg
[4]; PO dose of 10 mL/kg
  Area under the curve AUC0-last: 2.89 µM·h
  Time of peak concentration Tmax: 22.8 min
  Cmax: 1.55 µM
[6]; high-dose group 60 mg/kg
  T/C: 34.20%
  TGI: 69.73%

## O=C1NC2(COC2)COc2ncc(F)cc2[C@H]2CCON2c2ccn3ncc1c3n2 [WX006A]
Ros1
  IC50: 0.59 nM
TrkA
  IC50: 9.84 nM
TrkA-G595R
  IC50: 4.74 nM
TrkA-G667C
  IC50: 37.5 nM
TrkC
  IC50: 0.16 nM
ALK
  IC50: 79.2 nM
[1]
  GI50: 23.5 nM
[2]
  GI50: 19.4 nM
[3]
  GI50: 5.4 nM
[4]; IV dose of 3 mg/kg
  Apparent clearance Cl: 19.9 mL/min/kg
[4]; [7]
  Vd: 1.01 L/kg
  AUC(0-t): 6.1 µM·h
  half-life: 33.6 min
[4]; [8]
  bioavailability: 72%
[4]; [9]
  AUC(0-t): 14.4 µM·h
  Cmax: 8.78 µM
  Tmax: 15 min
